Biological target: T1, hMCHR (Homo sapiens, UniProt Q99705)
T1 construct: host or cells: CHO (Chinese hamster ovary) cells, membranes
Test: MCH Assay PCOP Protocol: [125I]-MCH binding to hMCHR-CHO membranes, WGA-SPA beads
Details: hMCHR-CHO overexpressing membranes, 0.5 nM [125I]-MCH, 2 hours incubation
Method: A reaction mixture of 10 μg hMCHR-CHO overexpressing membranes (from Receptor Biology, Inc., Beltville, Md., or internally produced) and 100 μg/well WGA-SPA beads (from Amersham Pharmacia Biotech, Inc., Piscataway, N.J.)/100 μL was prepared in MCHR assay buffer (25 mM HEPES, pH 7.4, 10 mM NaCl, 10 mM MgCl2, 5 mM MnCl2, 0.1%BSA). […] The assay plates were shaken for 5 minutes on a plate shaker, then incubated for 2 hours before cpm/well were determined in a Microbeta Trilux counter (from Perkin Elmer Wallac, Inc., Gaithersburg, Md.).

T1 sequence (Q99705 whole entry): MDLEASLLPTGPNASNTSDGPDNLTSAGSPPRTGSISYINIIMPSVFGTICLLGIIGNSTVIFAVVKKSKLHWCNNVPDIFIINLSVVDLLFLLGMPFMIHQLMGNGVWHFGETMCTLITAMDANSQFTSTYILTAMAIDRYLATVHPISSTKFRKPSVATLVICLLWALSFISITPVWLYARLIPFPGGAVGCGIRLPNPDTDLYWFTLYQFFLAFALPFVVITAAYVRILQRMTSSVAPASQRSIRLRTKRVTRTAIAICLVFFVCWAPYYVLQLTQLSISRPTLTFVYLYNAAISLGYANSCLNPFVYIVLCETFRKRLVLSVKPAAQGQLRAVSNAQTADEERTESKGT

SMILES | Ki
N#Cc1cccc(-c2ccc(C3(CNC(=O)Nc4cc(Cl)cc(Cl)c4)CCN(CCC(F)(F)F)CC3)cc2)c1 [Example 118] | 0.2 to 10 nM
CN1CCC(CNC(=O)Nc2cc(Cl)cc(Cl)c2)(c2cccc(Cl)c2)CC1 [Example 24] | 101 to 5500 nM
CC(C)N1CCC(CNC(=O)Nc2cc(Cl)cc(Cl)c2)(c2ccc(-c3ccc4c(c3)OCO4)cc2)CC1 [Example 82] | 0.2 to 10 nM
Cc1ccc(C2(CNC(=O)Nc3cc(Cl)cc(Cl)c3)CCN(CC3CC3)CC2)cc1 [Example 25] | 101 to 5500 nM
CN1CCC(CNC(=O)Nc2cc(Cl)cc(Cl)c2)(c2ccc(-c3ccc4c(c3)OCO4)cc2)CC1 [Example 43] | 0.2 to 10 nM
COCCN1CCC(CNC(=O)Nc2cc(F)cc(C(F)(F)F)c2)(c2ccc(-c3cccc(C#N)c3)cc2)CC1 [Example 89] | 0.2 to 10 nM
Cc1ccc(C2(CNC(=O)Nc3cc(Cl)cc(Cl)c3)CCNCC2)cc1 [Example 23] | 101 to 5500 nM
O=C(Nc1cc(Cl)cc(Cl)c1)N1CCC(CNCC2CC2)(c2ccc(-c3cccc(Cl)c3)cc2)CC1 [Example 128] | 101 to 5500 nM
CN1CCC2(CC1)CN(C(=O)Nc1cc(Cl)cc(Cl)c1)c1ccc(-c3cccc(C#N)c3)cc12 [Example 37] | 11 to 100 nM
CN1CCC(CNC(=O)Nc2cc(Cl)cc(Cl)c2)(c2ccc(-c3cccc(N)c3)cc2)CC1 [Example 41] | 11 to 100 nM
O=C(NCC1(c2ccc(-c3cccc(Cl)c3)cc2)CCN(C2CCC2)CC1)Nc1cc(Cl)cc(Cl)c1 [Example 107] | 101 to 5500 nM
O=C(Nc1cc(Cl)cc(Cl)c1)N1CCC(CNCC2CC2)(c2ccc(-c3ccc4c(c3)OCO4)cc2)CC1 [Example 125] | 101 to 5500 nM
CN1CCC(CNC(=O)Nc2ccc(Cl)cc2Cl)(c2ccc(-c3cccc(C#N)c3)cc2)CC1 [Example 36] | 11 to 100 nM
CN1CCC(CNC(=O)Nc2ccc(F)cc2F)(c2ccc(-c3cccc(C#N)c3)cc2)CC1 [Example 9, 1-[4-(3′-Cyano-biphenyl-4-yl)-1-methyl-piperidin-4-ylmethyl]-3-(2,4-difluoro-phenyl)-urea] | 0.2 to 10 nM
CC(=O)c1cccc(-c2ccc(C3(CNC(=O)Nc4cc(Cl)cc(Cl)c4)CCN(C(C)C)CC3)cc2)c1 [Example 80] | 11 to 100 nM
CN1CCC2(CC1)CN(C(=O)Nc1ccc(F)c(Cl)c1)c1cc(-c3cccc(C#N)c3)ccc12 [Example 17, 1-(3-Chloro-4-fluorophenyl)ureido-6-(3-cyanophenyl)-1′-methyl-spiro[indoline-3,4′-piperidine]] | 101 to 5500 nM
CN1CCC(CNC(=O)c2cc(Cl)cc(Cl)c2)(c2ccc(-c3cccc(Cl)c3)cc2)CC1 [Example 72] | 101 to 5500 nM
CN1CCC(CNC(=O)Nc2cc(Cl)cc(Cl)c2)(c2ccc(-c3cc4ccccc4o3)cc2)CC1 [Example 40] | 101 to 5500 nM
O=C(Nc1cc(Cl)cc(Cl)c1)N1CCC(CN(CC2CC2)CC2CC2)(c2ccc(-c3ccc4c(c3)OCO4)cc2)CC1 [Example 132] | 101 to 5500 nM
O=C(NCC1(c2ccc(-c3cccc(Cl)c3)cc2)CCN(CC2CC2)CC1)Nc1cc(Cl)cc(Cl)c1 [Example 70] | 0.2 to 10 nM
CC(=O)Nc1cccc(-c2ccc(C3(CNC(=O)Nc4cc(Cl)cc(Cl)c4)CCN(C4CCCCC4)CC3)cc2)c1 [Example 122] | 0.2 to 10 nM
CN(CC1(c2ccc(-c3cccc(C#N)c3)cc2)CCN(CC2CC2)CC1)C(=O)Nc1cc(Cl)cc(Cl)c1 [Example 14, 1-[4-(3′-Cyano-biphenyl-4-yl)-1-cyclopropylmethyl-piperidin-4-ylmethyl]-3-(3,5-dichloro-phenyl)-1-methyl-urea] | 0.2 to 10 nM
CN1CCC(CNC(=O)Nc2cc(C(F)(F)F)ccc2Cl)(c2ccc(-c3cccc(Cl)c3)cc2)CC1 [Example 57] | 11 to 100 nM
COCCN1CCC(CNC(=O)Nc2cc(Cl)cc(Cl)c2)(c2ccc(-c3cccc(Cl)c3)cc2)CC1 [Example 35] | 0.2 to 10 nM
CN1CCC(CNC(=O)Nc2ccc(F)c(F)c2)(c2ccc(-c3cccnc3)cc2)CC1 [Example 30] | 11 to 100 nM
N#Cc1cccc(-c2ccc(C3(CNC(=O)Nc4ccc(F)c(Cl)c4)CCN(CCC(F)(F)F)CC3)cc2)c1 [Example 117] | 0.2 to 10 nM
